In the OligoGym collection:
HELM strings list units from the 5' end as sugar, base in round brackets, then linkage (d deoxyribose, r ribose, m 2'-O-methyl, p phosphodiester). Strings are as the collection lists them; they lack the last nucleoside at the 3' end of the tested compound. [moe] = 2'-O-(2-methoxyethyl) (MOE); [sp] = phosphorothioate linkage; [m5C] = 5-methylcytosine

The substances below were run against PRNP (assay: mouse, dose not given). Conditions: ASO.

Q: With “RNA1{[moe](T)[sp].[moe]([m5C])p.[moe](T)p.[moe](A)p.[moe](T)p.d(G)[sp].d(T)[sp].d(T)[sp].d(T)[sp].d(T)[sp].d([m5C])[sp].d([m5C])[sp].d(A)[sp].d(G)[sp].[moe](T)p.[moe](G)p.[moe]([m5C])[sp].[moe]([m5C])}$$$$ (last 3' nucleoside missing)” as the substance, how does the 3 h FOB score read?
A: 0 score 0-7

Q: With “RNA1{[moe](G)[sp].[moe](T)p.[moe](A)p.[moe](T)p.[moe]([m5C])[sp].d(A)[sp].d(T)[sp].d(G)[sp].d(T)[sp].d(G)[sp].d(G)[sp].d([m5C])[sp].d([m5C])[sp].d(T)[sp].d([m5C])[sp].[moe]([m5C])p.[moe](T)p.[moe](A)[sp].[moe](A)}$$$$ (last 3' nucleoside missing)” as the substance, how does the 3 h FOB score read?
A: 5.5 score 0-7

Q: For “RNA1{[moe](T)[sp].[moe]([m5C])p.[moe](A)p.[moe](T)p.[moe]([m5C])[sp].d(A)[sp].d(T)[sp].d(T)[sp].d(T)[sp].d(T)[sp].d(G)[sp].d([m5C])[sp].d([m5C])[sp].d(A)[sp].d(T)[sp].[moe](T)p.[moe](T)p.[moe](A)[sp].[moe](T)}$$$$ (last 3' nucleoside missing)”, which 3 h FOB score is on record?
A: 6 score 0-7

Q: With “RNA1{[moe](A)[sp].[moe]([m5C])p.[moe]([m5C])p.[moe](A)p.[moe](T)[sp].d(A)[sp].d(T)[sp].d(A)[sp].d([m5C])[sp].d([m5C])[sp].d(A)[sp].d(T)[sp].d(G)[sp].d(T)[sp].d(A)[sp].[moe]([m5C])p.[moe](A)p.[moe](G)[sp].[moe](T)}$$$$ (last 3' nucleoside missing)” as the substance, how does the 3 h FOB score read?
A: 4.75 score 0-7

Q: With “RNA1{[moe]([m5C])[sp].[moe](A)p.[moe](G)p.[moe](T)p.[moe](T)[sp].d(T)[sp].d(T)[sp].d(T)[sp].d([m5C])[sp].d([m5C])[sp].d([m5C])[sp].d([m5C])[sp].d(A)[sp].[moe]([m5C])p.[moe](A)p.[moe](T)[sp].[moe](A)}$$$$ (last 3' nucleoside missing)” as the substance, how does the 3 h FOB score read?
A: 0 score 0-7

Q: Which 3 h FOB score does the source give for “RNA1{[moe]([m5C])[sp].[moe](T)p.[moe]([m5C])p.[moe](T)p.d(A)[sp].d(T)[sp].d(G)[sp].d(T)[sp].d(T)[sp].d(T)[sp].d(T)[sp].d([m5C])[sp].d([m5C])[sp].d(A)[sp].[moe](G)p.[moe](T)p.[moe](G)p.[moe]([m5C])[sp].[moe]([m5C])}$$$$ (last 3' nucleoside missing)” here?
A: 3.25 score 0-7

Q: With “RNA1{[moe]([m5C])[sp].[moe](T)p.[moe](A)p.[moe](T)p.d(G)[sp].d(T)[sp].d(T)[sp].d(T)[sp].d(T)[sp].d([m5C])[sp].d([m5C])[sp].d(A)[sp].d(G)[sp].d(T)[sp].[moe](G)p.[moe]([m5C])p.[moe]([m5C])p.[moe]([m5C])[sp].[moe](A)}$$$$ (last 3' nucleoside missing)” as the substance, how does the 3 h FOB score read?
A: 1.25 score 0-7

Q: For “RNA1{[moe](G)[sp].[moe](T)p.[moe](A)p.[moe](T)p.[moe](A)[sp].d(A)[sp].d(T)[sp].d(T)[sp].d(T)[sp].d(T)[sp].d(T)[sp].d(T)[sp].d(T)[sp].d(A)[sp].d([m5C])[sp].[moe]([m5C])p.[moe](T)p.[moe](G)[sp].[moe](G)}$$$$ (last 3' nucleoside missing)”, which 3 h FOB score is on record?
A: 0 score 0-7

Q: “RNA1{[moe](A)[sp].[moe](A)p.[moe](G)p.[moe](G)p.[moe](T)[sp].d(T)[sp].d([m5C])[sp].d(G)[sp].d([m5C])[sp].d([m5C])[sp].d(A)[sp].d(T)[sp].d(A)[sp].d(A)[sp].d(T)[sp].[moe](G)p.[moe](A)p.[moe]([m5C])[sp].[moe](T)}$$$$ (last 3' nucleoside missing)” was tested. Which 3 h FOB score did it give?
A: 5.25 score 0-7

Q: With “RNA1{[moe]([m5C])[sp].[moe](A)p.[moe](G)p.[moe](T)p.[moe](G)[sp].d(T)[sp].d(T)[sp].d([m5C])[sp].d([m5C])[sp].d(A)[sp].d(T)[sp].d([m5C])[sp].d([m5C])[sp].d(T)[sp].d([m5C])[sp].[moe]([m5C])p.[moe](A)p.[moe](G)[sp].[moe](G)}$$$$ (last 3' nucleoside missing)” as the substance, how does the 3 h FOB score read?
A: 1 score 0-7

Q: How did the 3 h FOB score turn out when “RNA1{[moe](A)[sp].[moe]([m5C])p.[moe](T)p.[moe]([m5C])p.d(T)[sp].d(A)[sp].d(T)[sp].d(G)[sp].d(T)[sp].d(T)[sp].d(T)[sp].d(T)[sp].d([m5C])[sp].d([m5C])[sp].[moe](A)p.[moe](G)p.[moe](T)p.[moe](G)[sp].[moe]([m5C])}$$$$ (last 3' nucleoside missing)” was run?
A: 1.5 score 0-7

Q: For “RNA1{[moe](G)[sp].[moe](G)p.[moe](T)p.[moe](T)p.[moe](A)[sp].d([m5C])[sp].d(A)[sp].d(T)[sp].d(A)[sp].d(A)[sp].d(T)[sp].d(G)[sp].d(T)[sp].d(T)[sp].d([m5C])[sp].[moe](A)p.[moe](T)p.[moe](T)[sp].[moe](T)}$$$$ (last 3' nucleoside missing)”, which 3 h FOB score is on record?
A: 5 score 0-7

Q: Which 3 h FOB score does the source give for “RNA1{[moe]([m5C])[sp].[moe]([m5C])p.[moe](T)p.[moe](T)p.[moe](T)[sp].d([m5C])[sp].d(A)[sp].d(T)[sp].d(A)[sp].d(T)[sp].d(A)[sp].d(T)[sp].d(G)[sp].d(T)[sp].d(T)[sp].[moe](A)p.[moe]([m5C])p.[moe](A)[sp].[moe](G)}$$$$ (last 3' nucleoside missing)” here?
A: 5 score 0-7

Q: For “RNA1{[moe](G)[sp].[moe]([m5C])p.[moe](T)p.[moe](T)p.[moe](T)[sp].d(G)[sp].d(G)[sp].d(A)[sp].d(T)[sp].d([m5C])[sp].d(T)[sp].d([m5C])[sp].d(T)[sp].d(T)[sp].d(A)[sp].[moe](G)p.[moe](A)p.[moe](T)[sp].[moe](T)}$$$$ (last 3' nucleoside missing)”, which 3 h FOB score is on record?
A: 0 score 0-7

Q: How did the 3 h FOB score turn out when “RNA1{[moe](A)[sp].[moe]([m5C])p.[moe](T)p.[moe]([m5C])p.[moe](T)[sp].d(A)[sp].d(T)[sp].d(G)[sp].d(T)[sp].d(T)[sp].d(T)[sp].d(T)[sp].d([m5C])[sp].d([m5C])[sp].d(A)[sp].[moe](G)p.[moe](T)p.[moe](G)[sp].[moe]([m5C])}$$$$ (last 3' nucleoside missing)” was run?
A: 2 score 0-7

Q: How did the 3 h FOB score turn out when “RNA1{[moe](T)[sp].[moe]([m5C])p.[moe](T)p.[moe](G)p.[moe](A)[sp].d(G)[sp].d(A)[sp].d(T)[sp].d(T)[sp].d(T)[sp].d(G)[sp].d(T)[sp].d(T)[sp].d(T)[sp].d(T)[sp].[moe](A)p.[moe](G)p.[moe]([m5C])[sp].[moe]([m5C])}$$$$ (last 3' nucleoside missing)” was run?
A: 3 score 0-7

Q: “RNA1{[moe](T)[sp].[moe](G)p.[moe]([m5C])p.[moe](A)p.[moe]([m5C])[sp].d(A)[sp].d([m5C])[sp].d(T)[sp].d(G)[sp].d(A)[sp].d([m5C])[sp].d([m5C])[sp].d(A)[sp].d(T)[sp].d(T)[sp].[moe](T)p.[moe](T)p.[moe](T)[sp].[moe](T)}$$$$ (last 3' nucleoside missing)” was tested. Which 3 h FOB score did it give?
A: 1 score 0-7

Q: Which 3 h FOB score does the source give for “RNA1{[moe](A)[sp].[moe]([m5C])p.[moe](G)p.[moe](T)p.[moe]([m5C])[sp].d([m5C])[sp].d(A)[sp].d(T)[sp].d(T)[sp].d(T)[sp].d(T)[sp].d([m5C])[sp].d(T)[sp].d(G)[sp].d(T)[sp].[moe](G)p.[moe]([m5C])p.[moe](T)[sp].[moe](T)}$$$$ (last 3' nucleoside missing)” here?
A: 1.75 score 0-7
